From patent US7052874B2, “Detection of antibacterial activity in excretory secretory product of adult Trichuris suis” (priority 2000, dated 2006)
Where a name gives a salt, the structure may show the parent alone. Read-outs that look alike come from different tables or passages of the source.

Experiments:
[1] = system: Campylobacter jejuni; assay: Qualitative broth microdilution assay of ultrafiltration and HPLC fractions; type: cell-based; details: C18 reverse phase HPLC, 5–80% ACN gradient
Experimental: (§1) A broth microdilution method in 96 well plates was used to obtain qualitative and quantitative measures of antibacterial activity. Qualitatively, 50 μl samples of ESP were added to 50 μl suspensions of Campylobacter jejuni (containing about 5×10^5 cfu, as determined by standard serial dilution and plating) in 96 well plates. Plates were evaluated for growth as indicated by the presence of either turbidity or pellet of bacterial cells in the bottoms of U-shaped wells after 48 hr incubation.
Ultrafiltration. Ultrafiltration methods were used to nominally size fractionate ESP for an approximate determination of the molecular weight of the antibacterial agent(s). AMICON stirred cells under pressurized nitrogen gas were used to separate ESP into fractions above (retentate) and below (filtrate) 30,000 MW with a Millipore YM30 membrane (Millipore) and fractions above (retentate) and below (filtrate) 10,000 MW with a Millipore YM10 membrane. Prior to bioassay, the concentrated retentate fraction was returned to its original volume in RPMI-1640 media to match the volume of the filtrate so that comparisons of relative activity could be made without distortions due to volume differences. […]
High performance liquid chromatography. […] Absorbance of the eluate was monitored at 214 nm, and fractions were collected manually as peaks were detected. […]

[2] = system: Campylobacter jejuni; assay: Heat stability of antibiotics (boiling, then qualitative broth microdilution assay); type: cell-based; details: for inactivation of antibiotic by heat treatment: boiling
Experimental: as §1, with “incubation. […] The size of the drug was also taken into consideration. Additionally, an experiment to assess the heat stability of the antibiotics was performed.” for “incubation.”

[3] = n-octanol/water partition coefficient (log PC) of antibiotics; type: physicochemical; details: in parentheses beside log PC
Experimental: Consideration of CAP contamination. […] Using the worst-case scenario, the predicted maximum amount of CAP absorbed and how much would be released into the medium if the whipworms dissolved (i.e., released 100%) was estimated. […] It was assumed that the aggregate whipworm volume of these eccentrically shaped nematodes occupied 4% of the incubation well volume (4 whipworms/ml at about 10 μl/whipworm).

[4] = compiled from a drug database at Upjohn; cited from earlier work

Structure (SMILES)	antibacterial activity of HPLC fractions [1]	Antibacterial activity after boiling [2]	inactivation of antibiotic by heat treatment [2]	Antibacterial activity after boiling ([2]; antibiotics (133 concentration) boiled for 10 minutes)	Concentrating factor [3]	log PC (n-octanol/water partition coefficient) [4]
O=C(N[C@H](CO)[C@H](O)c1ccc([N+](=O)[O-])cc1)C(Cl)Cl [Chloramphenicol, chloramphenicol]	one fraction with antibacterial activity	+	not heat-inactivated			
CC1(C)S[C@@H]2[C@H](NC(=O)Cc3ccccc3)C(=O)N2[C@H]1C(=O)O [Penicillin G]			inactivated by heat treatment	−	(71×)	
[H]/N=C(/N)N[C@H]1[C@H](O)[C@@H](O)[C@H](O[C@@H]2O[C@@H](C)[C@](O)(C=O)[C@H]2O[C@@H]2O[C@@H](CO)[C@H](O)[C@@H](O)[C@@H]2NC)[C@@H](N/C(N)=N\[H])[C@@H]1O [Streptomycin sulfate]		+	boiling did not inactivate			−9.53
